Experimental data reported in patent US7696129B2, “Substituted aromatic amide derivative, intermediate thereof, agrohorticultural insecticide containing thereof and method for the use thereof” (Nihon Nohyaku Co., Ltd., priority 2001, dated 2010).

What was measured:
Type in all cases: in vivo
[1] = test system: Diamond Back Moth (Plutella xylostella); assay: Test Example 1: insecticidal effect on diamond back moth, immersion of Chinese cabbage seedling with eggs; settings: seedling with eggs immersed about 30 seconds, 25° C., six days after the immersion; for mortality at 50 ppm: Plutella xylostella, 144 h, read-out: Test Example 1 (insecticidal effect, mortality criterion)
Outline: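 Chinese cabbage seedlings bearing 2-day-old moth eggs dipped about 30 s in compound at 50 ppm, air-dried, held at 25° C. Hatched larvae counted six days later to give mortality; triplicate groups of 10 insects.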

[2] = test system: Common Cutworm (Spodoptera litura); assay: Test Example 2: insecticidal effect on common cutworm, cabbage leaf immersion; settings: cabbage leaf immersed about 30 seconds, second-instar larvae, 25° C., eight days after the inoculation; for mortality at 50 ppm: Spodoptera litura, 192 h, read-out: Test Example 2 (insecticidal effect, mortality criterion)
Outline: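 Cabbage leaf pieces dipped about 30 seconds in 50 ppm compound dilution, air-dried, then infested with second-instar larvae and kept at 25° C. Dead and alive counted eight days after inoculation to give mortality; triplicate groups of 10 insects.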

[3] = test system: Diamond Back Moth (Plutella xylostella); assay: Test Example 4: controlling effect on diamond back moth with soil treatment (pricking-in hole treatment with granules); settings: 10 mgAI/plant, soil treatment at fix planting, about 50 eggs inoculated nine days after planting
From the text: Controlling Effect on Diamond Back Moth (Plutella xylostella) with Soil Treatment of […] The pricking-in hole treatment was done with the granules containing each compound listed in Tables 4 according to the formulation examples of the present invention, at the fix planting of […] (cultivar; YR Seitoku). Nine days after the fix planting, about 50 eggs of diamond back moth (Plutella xylostella) were innoculated, then the number of the parasitic insects of diamond back moth (Plutella xylostella) was counted on the specified days after the innoculation.

[4] = test system: Smaller Tea Tortrix (Adxophyes sp.); assay: Test Example 3: insecticidal effect on smaller tea tortrix, tea leaf immersion; settings: 50 ppm, tea leaves immersed about 30 seconds, larvae, 25° C., humidity 70%, eight days after the inoculation
Outline: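 Tea leaves dipped about 30 s in compound diluted to 50 ppm, air-dried, then infested with smaller tea tortrix larvae at 25°C and 70% humidity. Mortality counted 8 days post-inoculation and scored by a graded criterion; triplicate groups of 10 insects.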

## CSCC(C)(C)NC(=O)c1c(I)cccc1C(=O)Nc1ccc(C(C(F)(F)F)C(F)(F)F)cc1C [5-30]
[1]; 50 ppm
  Test Example 1 (insecticidal effect, mortality criterion): A (Mortality 100%)
[2]; 50 ppm
  Test Example 2 (insecticidal effect, mortality criterion): A (Mortality 100%)
[3]
  Number of the parasitic insects/three plants After 18 days: 0 parasitic insects/three plants
  Number of the parasitic insects/three plants After 25 days: 3 parasitic insects/three plants
  Number of the parasitic insects/three plants After 32 days: 22 parasitic insects/three plants
[4]
  Test Example 3 (insecticidal effect, mortality criterion): A (Mortality 100%)

## CSCC(C)(C)NC(=O)c1c(I)cccc1C(=O)Nc1ccc(C(C(F)(F)F)C(F)(F)F)cc1C [Compound No. 5-28, N^2-(1,1-dimethyl-2-methylthioethyl)-3-iodo-N^1-{2-methyl-4-[2,2,2-trifluoro-1-(trifluoromethyl)ethyl]phenyl}phthalamide]
[1]
  mortality at 50 ppm: 100%
[2]
  mortality at 50 ppm: 100%
[3]
  Number of the parasitic insects/three plants After 18 days: 0 parasitic insects/three plants
  Number of the parasitic insects/three plants After 25 days: 5 parasitic insects/three plants
  Number of the parasitic insects/three plants After 32 days: 14 parasitic insects/three plants
[4]
  Test Example 3 (insecticidal effect, mortality criterion): A (Mortality 100%)

## Cc1cc(C(C(F)(F)F)C(F)(F)F)ccc1NC(=O)c1cccc(I)c1C(=O)NC(C)(C)C[S+](C)[O-] (stereo not drawn) [Compound No. 5-29, N^2-(1,1-dimethyl-2-methylsulfinylethyl)-3-iodo-N^1-[2-methyl-4-{2,2,2-trifluoro-1-(trifluoromethyl)ethyl}phenyl]phthalamide]
[1]
  mortality at 50 ppm: 100%
[2]
  mortality at 50 ppm: 100%
[3]
  Number of the parasitic insects/three plants After 18 days: 0 parasitic insects/three plants
  Number of the parasitic insects/three plants After 25 days: 0 parasitic insects/three plants
  Number of the parasitic insects/three plants After 32 days: 0 parasitic insects/three plants
[4]
  Test Example 3 (insecticidal effect, mortality criterion): A (Mortality 100%)

## CSCC(C)(C)NC(=O)c1c(I)cccc1C(=O)Nc1ccc(C(C(F)(F)F)C(F)(F)F)nc1Cl [Compound No. 8-4, N^2-(1,1-dimethyl-2-methylthioethyl)-3-iodo-N^1-{2-chloro-6-[2,2,2-trifluoro-1-(trifluoromethyl)ethyl]pyridin-3-yl}phthalamide]
[1]
  mortality at 50 ppm: 100%
[2]
  mortality at 50 ppm: 100%
[4]
  Test Example 3 (insecticidal effect, mortality criterion): A (Mortality 100%)

## Cc1cc(C(C(F)(F)F)C(F)(F)F)ccc1NC(=O)c1cccc(I)c1C1=NC(C)(C)CO1 [Compound No. 10-1, 3-iodo-2-(4,4-dimethyloxazolin-2-yl)-2′-methyl-4′-[2,2,2-trifluoro-1-(trifluoromethyl)ethyl]benzanilide]
[1]
  mortality at 50 ppm: 100%
[2]
  mortality at 50 ppm: ≤ 49%
[4]
  Test Example 3 (insecticidal effect, mortality criterion): E (Mortality 49% or less)
